{"source": "ChEMBL document CHEMBL1201862", "about": "“PubChem BioAssay data set” (2004)", "key": {"[1]": {"molecular_target": "T1, Voltage-gated N-type calcium channel alpha-1B subunit/Amyloid beta A4 precursor protein-binding family A member 1 (Homo sapiens, UniProt Q00975+Q02410)", "T1 sequence (Q00975 whole entry)": "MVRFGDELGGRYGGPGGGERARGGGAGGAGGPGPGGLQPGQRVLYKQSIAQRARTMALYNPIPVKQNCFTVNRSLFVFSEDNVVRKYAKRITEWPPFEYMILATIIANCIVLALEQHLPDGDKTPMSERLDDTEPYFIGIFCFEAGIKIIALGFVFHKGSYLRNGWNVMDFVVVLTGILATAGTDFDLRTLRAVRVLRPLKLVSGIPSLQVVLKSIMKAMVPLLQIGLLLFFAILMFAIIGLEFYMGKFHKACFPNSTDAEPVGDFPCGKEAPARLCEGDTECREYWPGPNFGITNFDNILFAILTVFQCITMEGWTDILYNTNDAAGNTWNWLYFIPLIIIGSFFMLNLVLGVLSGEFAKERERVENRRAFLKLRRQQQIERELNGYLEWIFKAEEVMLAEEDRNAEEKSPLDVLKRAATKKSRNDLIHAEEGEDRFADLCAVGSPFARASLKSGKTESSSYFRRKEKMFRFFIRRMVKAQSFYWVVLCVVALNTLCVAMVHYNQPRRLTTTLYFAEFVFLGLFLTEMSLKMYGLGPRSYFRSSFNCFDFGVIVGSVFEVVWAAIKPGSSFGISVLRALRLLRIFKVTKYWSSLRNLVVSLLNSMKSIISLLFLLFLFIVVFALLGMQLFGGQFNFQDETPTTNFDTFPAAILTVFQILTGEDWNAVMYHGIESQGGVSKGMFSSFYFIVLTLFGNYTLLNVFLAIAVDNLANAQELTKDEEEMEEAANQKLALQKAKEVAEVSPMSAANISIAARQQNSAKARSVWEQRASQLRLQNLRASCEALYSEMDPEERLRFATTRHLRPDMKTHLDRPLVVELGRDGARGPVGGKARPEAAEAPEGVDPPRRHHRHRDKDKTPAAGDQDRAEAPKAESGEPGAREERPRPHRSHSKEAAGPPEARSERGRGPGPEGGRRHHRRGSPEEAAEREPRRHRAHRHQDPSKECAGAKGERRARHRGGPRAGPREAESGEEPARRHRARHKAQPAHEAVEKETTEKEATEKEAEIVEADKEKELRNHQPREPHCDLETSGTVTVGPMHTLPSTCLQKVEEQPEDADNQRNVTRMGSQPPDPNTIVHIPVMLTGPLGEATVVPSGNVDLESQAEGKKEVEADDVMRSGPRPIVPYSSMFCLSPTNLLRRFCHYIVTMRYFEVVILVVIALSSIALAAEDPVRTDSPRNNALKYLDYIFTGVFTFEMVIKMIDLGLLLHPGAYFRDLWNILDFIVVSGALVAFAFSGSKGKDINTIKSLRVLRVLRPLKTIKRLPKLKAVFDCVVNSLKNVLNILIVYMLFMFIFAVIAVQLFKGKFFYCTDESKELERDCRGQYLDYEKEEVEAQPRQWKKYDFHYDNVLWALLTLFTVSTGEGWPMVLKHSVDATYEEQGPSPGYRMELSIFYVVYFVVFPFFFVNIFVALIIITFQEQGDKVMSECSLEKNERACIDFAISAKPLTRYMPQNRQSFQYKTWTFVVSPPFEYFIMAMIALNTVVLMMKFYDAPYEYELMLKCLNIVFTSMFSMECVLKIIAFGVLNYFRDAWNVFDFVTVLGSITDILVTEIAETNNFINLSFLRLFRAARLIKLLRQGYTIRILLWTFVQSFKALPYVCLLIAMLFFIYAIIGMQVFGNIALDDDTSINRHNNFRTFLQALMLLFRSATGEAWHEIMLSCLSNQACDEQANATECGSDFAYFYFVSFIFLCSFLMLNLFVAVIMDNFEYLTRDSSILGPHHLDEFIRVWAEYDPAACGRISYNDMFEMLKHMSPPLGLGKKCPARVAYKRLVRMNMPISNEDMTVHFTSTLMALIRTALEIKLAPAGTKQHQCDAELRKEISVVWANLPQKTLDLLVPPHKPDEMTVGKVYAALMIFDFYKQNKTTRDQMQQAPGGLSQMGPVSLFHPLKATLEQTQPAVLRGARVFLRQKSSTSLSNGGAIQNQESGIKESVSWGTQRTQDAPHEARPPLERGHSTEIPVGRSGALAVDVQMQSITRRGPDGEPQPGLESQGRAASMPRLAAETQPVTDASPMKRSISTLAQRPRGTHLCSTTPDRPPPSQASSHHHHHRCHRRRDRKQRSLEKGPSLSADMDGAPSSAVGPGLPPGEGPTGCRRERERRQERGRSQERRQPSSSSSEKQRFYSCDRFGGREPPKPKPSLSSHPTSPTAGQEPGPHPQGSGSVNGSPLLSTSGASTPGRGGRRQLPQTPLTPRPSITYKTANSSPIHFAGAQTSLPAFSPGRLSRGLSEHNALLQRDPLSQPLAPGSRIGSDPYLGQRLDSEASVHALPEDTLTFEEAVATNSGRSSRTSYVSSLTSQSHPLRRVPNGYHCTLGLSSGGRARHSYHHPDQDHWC", "T1 sequence (Q02410 whole entry)": "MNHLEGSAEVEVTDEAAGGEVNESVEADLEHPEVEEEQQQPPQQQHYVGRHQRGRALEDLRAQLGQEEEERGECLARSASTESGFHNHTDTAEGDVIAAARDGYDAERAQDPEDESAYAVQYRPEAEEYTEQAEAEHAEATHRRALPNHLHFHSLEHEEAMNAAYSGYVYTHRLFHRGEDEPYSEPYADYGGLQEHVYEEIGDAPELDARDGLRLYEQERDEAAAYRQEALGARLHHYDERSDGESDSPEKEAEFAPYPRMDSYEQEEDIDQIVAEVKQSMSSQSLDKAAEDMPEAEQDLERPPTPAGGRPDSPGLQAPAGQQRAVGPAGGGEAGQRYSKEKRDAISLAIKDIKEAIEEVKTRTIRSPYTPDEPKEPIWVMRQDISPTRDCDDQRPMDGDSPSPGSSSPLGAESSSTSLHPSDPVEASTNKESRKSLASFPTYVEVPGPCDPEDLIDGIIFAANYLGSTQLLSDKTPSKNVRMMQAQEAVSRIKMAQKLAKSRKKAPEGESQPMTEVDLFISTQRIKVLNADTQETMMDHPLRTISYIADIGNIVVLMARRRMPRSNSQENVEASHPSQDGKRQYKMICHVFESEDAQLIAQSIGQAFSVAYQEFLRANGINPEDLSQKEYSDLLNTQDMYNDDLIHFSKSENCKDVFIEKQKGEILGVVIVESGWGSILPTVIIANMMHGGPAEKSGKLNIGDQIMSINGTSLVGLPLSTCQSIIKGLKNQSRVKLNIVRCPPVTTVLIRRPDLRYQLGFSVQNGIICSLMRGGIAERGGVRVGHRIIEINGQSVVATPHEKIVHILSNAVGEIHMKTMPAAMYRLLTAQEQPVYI", "assay_type": "protein assay"}, "[2]": {"molecular_target": "T1, Voltage-gated N-type calcium channel alpha-1B subunit/Amyloid beta A4 precursor protein-binding family A member 1", "assay_type": "protein assay", "remark": "listed apart in the source"}, "[3]": {"molecular_target": "T2, Long-chain-fatty-acid--AMP ligase FadD28 (Mycobacterium tuberculosis, UniProt P9WQ59)", "T2 sequence (P9WQ59 whole entry)": "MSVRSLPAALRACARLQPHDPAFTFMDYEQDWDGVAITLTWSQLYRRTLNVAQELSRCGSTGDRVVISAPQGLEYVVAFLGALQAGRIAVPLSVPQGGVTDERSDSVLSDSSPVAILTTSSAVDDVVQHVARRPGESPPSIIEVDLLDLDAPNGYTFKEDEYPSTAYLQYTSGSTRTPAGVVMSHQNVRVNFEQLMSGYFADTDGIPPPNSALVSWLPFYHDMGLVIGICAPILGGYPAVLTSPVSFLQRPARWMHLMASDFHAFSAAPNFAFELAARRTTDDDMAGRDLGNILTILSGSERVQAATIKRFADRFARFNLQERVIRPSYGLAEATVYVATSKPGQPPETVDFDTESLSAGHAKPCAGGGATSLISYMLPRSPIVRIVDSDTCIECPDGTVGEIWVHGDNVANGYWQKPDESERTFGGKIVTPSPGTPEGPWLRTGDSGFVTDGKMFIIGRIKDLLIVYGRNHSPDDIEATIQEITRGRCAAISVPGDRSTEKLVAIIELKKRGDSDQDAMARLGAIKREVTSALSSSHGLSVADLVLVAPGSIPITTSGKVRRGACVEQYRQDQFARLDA", "test": "Fluorescence polarization aasay to screen for inhibitors that compete for the binding of FadD28 to a bisubstrate Measured in Biochemical System Using Plate Reader - 2147-01_Inhibitor_Dose_CherryPick_Activity.", "assay_type": "functional, Mycobacterium tuberculosis H37Rv"}, "[4]": {"test": "HEK-293T cell viability reduction – luminescence, B-cell screen hits, cytotoxicity control for BCR NF-kB inhibitor project, dose response (AID 489021);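 further: HEK-293T cells carrying an NF-kB luciferase reporter; cells exposed to compound for about 14 hours before viability readout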", "assay_type": "functional, cell-based"}, "[5]": {"test_system": "INS1", "test": "INS-1E survival protection against cytokine death – cell-based, luminescence, retest, dose response (AID 449756);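 further: cell death triggered by IL-1 beta plus TNF-alpha plus IFN-gamma mixture; protective hits raise ATP signal compared with cytokine alone wells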", "assay_type": "functional", "details": "Rattus norvegicus"}, "[6]": {"molecular_target": "Nonstructural protein 1 (Influenza A virus, UniProt Q194T2)", "sequence (Q194T2 whole entry)": "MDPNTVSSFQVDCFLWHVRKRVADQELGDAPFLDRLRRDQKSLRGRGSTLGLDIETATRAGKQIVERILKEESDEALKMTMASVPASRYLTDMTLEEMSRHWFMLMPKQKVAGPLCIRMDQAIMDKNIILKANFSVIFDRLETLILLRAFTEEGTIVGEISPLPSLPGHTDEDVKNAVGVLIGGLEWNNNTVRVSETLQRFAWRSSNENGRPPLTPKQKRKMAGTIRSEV", "assay_type": "functional, Influenza A virus (A/California/07/2009(H1N1))"}, "[7]": {"test_system": "Streptococcus", "test": "GAS UMAA2166 growth inhibition – luminescence, BacTiterGlo, counter-screen for streptokinase expression inhibitor project, dose response (AID 1915);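 further: potency for reduction of bacterial viability or growth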", "assay_type": "functional, organism-based"}, "[8]": {"test": "viability loss of HPDE-C7K cells – cell-based, fluorescence, HTS, primary screen (AID 431)", "assay_type": "functional", "details": "Homo sapiens"}, "[9]": {"test_system": "Streptococcus sp. 'group A'", "test": "Streptococcus pyogenes SK(-)GAS viability under kanamycin – luminescence, BacTiterGlo, confirmation, counter-screen for streptokinase expression inhibitor project, dose response (AID 1900)", "assay_type": "functional, organism-based"}, "[10]": {"test": "HPDE-C7 pancreatic duct cell viability loss – fluorescence, HTS (AID 430)", "assay_type": "functional, cell-based", "details": "Homo sapiens"}, "[11]": {"test": "NIH-3T3 fibroblast cytotoxicity, dose response, cytotoxicity control, cell-based, fluorescence, Alamar Blue, secondary assay (AID 2327);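 further: NIH-3T3 mouse fibroblasts cultured with fluconazole at 8 µg/mL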", "assay_type": "functional"}, "[12]": {"test": "HEK-293T viability loss after treatment – luminescence, T-cell screen hits, cytotoxicity control for TCR NF-kB inhibitor project, dose response (AID 489026);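 further: cells exposed to compound about 14 hours before the viability readout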", "assay_type": "functional, cell-based"}, "[13]": {"test": "Trypanosoma cruzi growth suppression in host cells – NIH3T3 host cells, beta-gal luminescence, confirmation (AID 2044);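 further: intracellular parasites grown in NIH/3T3 mouse fibroblasts as host cells; luminescent beta-galactosidase reporter signal from transgenic T. cruzi replicating inside host cells; inhibitors lower the luminescence signal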", "assay_type": "functional, cell-based"}, "[14]": {"test": "fluconazole-exposed Candida albicans growth modulators – fluorescence, retest, confirmation (AID 2467)", "assay_type": "functional, cell-based"}, "[15]": {"test": "cells"}, "[16]": {"test": "NIH3T3 cell viability loss – ATP luminescence, mouse fibroblasts, counter-screen, dose response (AID 2010);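 further: cells exposed to compound for about 90 hours before reading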", "assay_type": "functional, cell-based"}, "[17]": {"molecular_target": "T3, Aminopeptidase N (Plasmodium falciparum FcB1/Columbia, UniProt O96935)", "T3 sequence (O96935 whole entry)": "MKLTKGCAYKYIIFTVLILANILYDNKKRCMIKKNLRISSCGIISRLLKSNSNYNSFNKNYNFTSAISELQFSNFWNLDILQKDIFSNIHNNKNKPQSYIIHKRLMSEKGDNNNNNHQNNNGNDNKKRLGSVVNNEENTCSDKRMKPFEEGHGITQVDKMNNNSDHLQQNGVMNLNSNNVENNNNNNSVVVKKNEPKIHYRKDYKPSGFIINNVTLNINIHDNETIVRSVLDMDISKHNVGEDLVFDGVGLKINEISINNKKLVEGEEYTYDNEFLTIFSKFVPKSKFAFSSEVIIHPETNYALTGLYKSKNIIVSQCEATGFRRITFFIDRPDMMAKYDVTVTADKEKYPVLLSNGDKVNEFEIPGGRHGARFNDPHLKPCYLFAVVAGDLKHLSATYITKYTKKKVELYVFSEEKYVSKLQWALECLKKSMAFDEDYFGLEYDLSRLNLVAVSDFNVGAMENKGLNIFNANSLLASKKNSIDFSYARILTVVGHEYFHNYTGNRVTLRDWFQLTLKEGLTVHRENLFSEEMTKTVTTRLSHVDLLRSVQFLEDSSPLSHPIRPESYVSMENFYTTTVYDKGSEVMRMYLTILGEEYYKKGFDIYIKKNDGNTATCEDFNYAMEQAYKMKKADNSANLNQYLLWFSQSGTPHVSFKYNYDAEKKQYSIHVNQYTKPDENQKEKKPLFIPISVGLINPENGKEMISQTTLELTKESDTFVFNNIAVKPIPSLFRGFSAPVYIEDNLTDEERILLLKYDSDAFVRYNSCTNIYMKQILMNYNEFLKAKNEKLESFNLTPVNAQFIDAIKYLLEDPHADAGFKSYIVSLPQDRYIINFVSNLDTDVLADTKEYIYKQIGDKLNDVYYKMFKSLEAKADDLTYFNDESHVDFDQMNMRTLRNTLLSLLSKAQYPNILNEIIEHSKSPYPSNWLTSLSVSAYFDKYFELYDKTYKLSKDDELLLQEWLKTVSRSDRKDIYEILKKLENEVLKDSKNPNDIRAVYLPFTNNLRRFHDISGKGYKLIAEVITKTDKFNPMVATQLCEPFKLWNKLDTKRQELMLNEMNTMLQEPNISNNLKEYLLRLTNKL", "test": "malaria alanyl aminopeptidase activity blockers – biochemical, fluorogenic H-Leu-NHMec substrate, 1536-well (AID 1445)", "set-up": "species or system Plasmodium falciparum 3D7, 3D7"}}, "note": "Active and inactive are the calls of the source.", "data": [{"smiles": "COC(=O)c1cc(NC(=O)c2ccccc2)c(=O)oc1/C=C/Nc1ccc(Oc2ccccc2)cc1", "values": [{"measurement": "IC50", "setting": "[1]", "result": "> 50 µM (inactive)"}, {"measurement": "IC50", "setting": "[2]", "result": "6.82 µM (active)"}, {"measurement": "AC50", "setting": "[3]", "result": "60.3 µM (active)"}]}, {"smiles": "O=C(NNC(=O)c1ccccc1O)c1ccc(Cl)c(S(=O)(=O)N2CCc3ccccc32)c1", "values": [{"measurement": "IC50", "setting": "[4]", "result": "77.9 µM (inactive)"}, {"measurement": "AC50", "setting": "[5]", "result": "4.28 µM (active)"}]}, {"smiles": "Cc1cccnc1NCc1ccc(O)c2ncccc12", "values": [{"measurement": "IC50", "setting": "[6]", "result": "14.1 µM (active)"}, {"measurement": "EC50", "setting": "[7]", "result": "3.33 µM (active)"}, {"measurement": "EC50", "setting": "[8]", "result": "10 µM (active)"}, {"measurement": "EC50", "setting": "[9]", "result": "2.9 µM (active)"}, {"measurement": "EC50", "setting": "[10]", "result": "13.6 µM (active)"}]}, {"smiles": "CCCCCCCn1c2c(c(=N)c3ccccc31)CCC2", "values": [{"measurement": "EC50", "setting": "[11]", "result": "> 160 µM (inactive)"}, {"measurement": "IC50", "setting": "[12]", "result": "72.2 µM (inactive)"}, {"measurement": "EC50", "setting": "[13]", "result": "< 0.1 µM (active)"}, {"measurement": "EC50", "setting": "[14]", "result": "4.4 µM (active)"}, {"measurement": "EC50", "setting": "[15]", "result": "< 0.004 µM (active)"}, {"measurement": "EC50", "setting": "[16]", "result": "25.2 µM (active)"}]}, {"smiles": "O=C(CCN1C(=O)/C(=C/c2ccc(Cl)cc2)SC1=S)NC1C=CS(=O)(=O)C1", "note": "(stereo not given)", "values": [{"measurement": "IC50", "setting": "[1]", "result": "> 50 µM (inactive)"}, {"measurement": "IC50", "setting": "[2]", "result": "8.45 µM (active)"}]}, {"smiles": "Cc1cc(=O)oc2c(CN3CCCCC3)c(O)c(Cl)cc12", "values": [{"measurement": "IC50", "setting": "[17]", "result": "59.6 µM (active)"}]}, {"smiles": "O=C1c2n[nH]c(-c3ccccc3O)c2C(c2ccccc2F)N1Cc1ccco1", "note": "(stereo not given)", "values": [{"measurement": "EC50", "setting": "[8]", "result": "15 µM (active)"}, {"measurement": "EC50", "setting": "[10]", "result": "13.1 µM (active)"}]}, {"smiles": "Cc1c(N2C(=O)C(O)=C(C(=O)c3ccc(Cl)cc3)C2c2ccccc2)c(=O)n(-c2ccccc2)n1C", "note": "(stereo not given)", "values": [{"measurement": "IC50", "setting": "[17]", "result": "62.1 µM (active)"}]}, {"smiles": "COc1ccc(C(=O)N/N=C/c2ccc(OC)c(CN3CCCc4ccccc43)c2)cc1", "values": [{"measurement": "IC50", "setting": "[4]", "result": "> 80 µM (inactive)"}]}, {"smiles": "CN(C)/C=C/C(=O)c1nnn(C2CCCCC2)c1NC1CCCCC1", "values": [{"measurement": "EC50", "setting": "[8]", "result": "> 20 µM (not active)"}, {"measurement": "EC50", "setting": "[10]", "result": "> 20 µM (not active)"}]}]}
